Measurements: US20260294915A1, “COMBINATION THERAPY COMPRISING A MAT2A INHIBITOR AND A TOPOISOMERASE INHIBITOR, A SPLICING INHIBITOR SULFONAMIDE, OR A KIF18 INHIBITOR” (IDEAYA BIOSCIENCES, INC., priority 2023, published 2026)
Read-outs that look alike come from different tables or passages of the source. Each block holds one compound with its values, some of them ahead of it.

Assays:
Test in all cases: 10-day proliferation (CTG), equimolar Compound A + SPLAM (Example 4)
Assay type in all cases: cell-based
TCCSUP = conditions: single agent or 1:1 combo; for IC50: Homo sapiens, TCC-SUP, read-out: gIC50
Procedure: (§1) A 10-day proliferation assay was performed in a panel of 5 MTAP-deficient and 2 wild type non-small cell lung and bladder cancer cell lines. Optimal cell seeding for all cell lines was determined by assessing the growth over a range of seeding densities in a 384-well format to identify conditions that permitted proliferation for 10 days. Cells were then plated at the optimal seeding density and treated with 20-point, two-fold dilution series of Compound A, the splicing inhibitor sulfonamide (SPLAM), or an equimolar combination of Compound A and the SPLAM. Combinations tested included Compound A in combination with four structurally different SPLAMs. Concentrations tested for Compound A and each SPLAM alone or in combination ranged from 0.04 nM to 20,000 nM. A plate of cells was harvested at the time of compound addition to quantify the number of cells at the start of the combination (T0). For cell quantification, the harvested cells were lysed with Promega CellTiter-Glo (CTG) reagent according to the manufacturer's protocol and the chemiluminescent signal was detected on a Synergy Neo plate reader. CTG estimates cell number through detection of cellular ATP levels. Cells were incubated with the drug combinations at 37° C. with 5% CO2 for 10 days. Cells were then lysed with CTG and the chemiluminescent signal was measured.
(§2) CTG values obtained after the 10-day treatment were background subtracted and expressed as a percent of the T0 value. Data were plotted against compound concentration and fit with a four-parameter equation to generate dose response curves for each single agent and the equimolar combination. Growth ICx (gICx) values ranging from gIC30 to gIC100 were interpolated from the fitted curves. Synergistic growth inhibition was assessed by determination of Combination Index (CI) values at these various points across the titration using the mutually non-exclusive equation [Chou, 1983; Chou, 1981] shown below where A equals the gICx value of Compound A, B equals the gICx value of the SPLAM, and A+B or B+A equals the gICx value of the equimolar combination. A Combination Index value less than 1.0 was considered synergistic.

SW900 = conditions: single agent or 1:1 combo; for IC50: Homo sapiens, read-out: gIC50
Procedure: as §1, §2

UMUC5 = conditions: single agent or 1:1 combo; for IC50: read-out: gIC50
Procedure: as §1, §2

NCI-H520 = conditions: single agent or 1:1 combo; for IC50: Homo sapiens, read-out: gIC50
Procedure: as §1, §2

UMUC11 = conditions: single agent or 1:1 combo; for IC50: read-out: gIC50
Procedure: as §1, §2

NCI-H838 = conditions: single agent or 1:1 combo; for IC50: Homo sapiens, read-out: gIC50
Procedure: as §1, §2

RT112/84 = conditions: single agent or 1:1 combo; for IC50: Homo sapiens, read-out: gIC50
Procedure: as §1, §2

- IC90 (SW900; 10 days, read-out: gIC90): 331 nM
- IC50 (SW900; SW900, 240 h, 10 days): 305 nM
- IC90 (NCI-H520; 10 days, read-out: gIC90): 2070 nM
- IC50 (NCI-H520; NCI-H520, 240 h, 10 days): 633 nM
- IC90 (NCI-H838; 10 days, read-out: gIC90): 551 nM
- IC50 (NCI-H838; NCI-H838, 240 h, 10 days): 325 nM
Structure (SMILES): NS(=O)(=O)c1ccc(S(=O)(=O)Nc2cccc3c(Cl)c[nH]c23)cc1 [Indisulam, N-(3-chloro-1H-indol-7-yl)benzene-1,4-disulfonamide]
- gIC30 (TCCSUP; 10 days): 20 µM
- gIC40 (TCCSUP; 10 days): 20 µM
- gIC60 (TCCSUP; 10 days): 20 µM
- gIC70 (TCCSUP; 10 days): 20 µM
- gIC100 (TCCSUP; 10 days): 20 µM
- IC80 (TCCSUP; 10 days, read-out: gIC80): 20000 nM
- IC90 (TCCSUP; 10 days, read-out: gIC90): 20000 nM
- IC50 (TCCSUP; 240 h, 10 days): 20000 nM
- gIC30 (SW900; 10 days): 0.295 µM
- gIC40 (SW900; 10 days): 0.3 µM
- gIC60 (SW900; 10 days): 0.31 µM
- gIC70 (SW900; 10 days): 0.315 µM
- gIC100 (SW900; 10 days): 0.357 µM
- IC80 (SW900; 10 days, read-out: gIC80): 321 nM
- IC50 (UMUC5; 240 h, 10 days): 420 nM
- gIC30 (UMUC5; 10 days): 310 nM
- gIC40 (UMUC5; 10 days): 363 nM
- gIC60 (UMUC5; 10 days): 0.487 µM
- gIC70 (UMUC5; 10 days): 0.574 µM
- gIC100 (UMUC5; 10 days): 20 µM
- IC80 (UMUC5; 10 days, read-out: gIC80): 707 nM
- IC90 (UMUC5; 10 days, read-out: gIC90): 990 nM
- gIC30 (NCI-H520; 10 days): 0.47 µM
- gIC40 (NCI-H520; 10 days): 0.546 µM
- gIC60 (NCI-H520; 10 days): 0.743 µM
- gIC70 (NCI-H520; 10 days): 0.897 µM
- gIC100 (NCI-H520; 10 days): 20 µM
- IC80 (NCI-H520; 10 days, read-out: gIC80): 1160 nM
- IC50 (UMUC11; 240 h, 10 days): 472 nM
- gIC30 (UMUC11; 10 days): 0.369 µM
- gIC40 (UMUC11; 10 days): 0.417 µM
- gIC60 (UMUC11; 10 days): 0.539 µM
- gIC70 (UMUC11; 10 days): 0.628 µM
- gIC100 (UMUC11; 10 days): 20 µM
- IC80 (UMUC11; 10 days, read-out: gIC80): 769 nM
- IC90 (UMUC11; 10 days, read-out: gIC90): 1110 nM
- gIC30 (NCI-H838; 10 days): 276 nM
- gIC40 (NCI-H838; 10 days): 300 nM
- gIC60 (NCI-H838; 10 days): 0.355 µM
- gIC70 (NCI-H838; 10 days): 0.393 µM
- gIC100 (NCI-H838; 10 days): 20 µM
- IC80 (NCI-H838; 10 days, read-out: gIC80): 448 nM
- gIC30 (RT112/84; 10 days): 249 nM
- gIC40 (RT112/84; 10 days): 273 nM
- gIC60 (RT112/84; 10 days): 0.327 µM
- gIC70 (RT112/84; 10 days): 0.363 µM
- gIC100 (RT112/84; 10 days): 20 µM
- IC80 (RT112/84; 10 days, read-out: gIC80): 414 nM
- IC90 (RT112/84; 10 days, read-out: gIC90): 510 nM
- IC50 (RT112/84; RT112/84, 240 h, 10 days): 298 nM

- IC50 (SW900; SW900, 240 h, 10 days): 20000 nM
- IC50 (SW900; SW900): 20000 nM
- IC50 (NCI-H520; NCI-H520, 240 h, 10 days): 20000 nM
- IC50 (NCI-H520; NCI-H520): 20000 nM
- IC50 (NCI-H838; NCI-H838, 240 h, 10 days): 594 nM
- IC50 (NCI-H838; NCI-H838): 594 nM
Structure (SMILES): Nc1nc(=O)n(-c2ccccc2Cl)c2nc(C(F)(F)F)ccc12 [Compound A]
- gIC30 (TCCSUP; 10 days): 14.461 µM
- gIC40 (TCCSUP; 10 days): 19.467 µM
- gIC60 (TCCSUP; 10 days): 20 µM
- gIC70 (TCCSUP; 10 days): 20 µM
- gIC100 (TCCSUP; 10 days): 20 µM
- IC50 (TCCSUP; 240 h, 10 days): 20000 nM
- IC50 (TCCSUP): 20000 nM
- gIC30 (TCCSUP): 14.461 µM
- gIC40 (TCCSUP): 19.467 µM
- gIC60 (TCCSUP): 20 µM
- gIC70 (TCCSUP): 20 µM
- gIC100 (TCCSUP): 20 µM
- gIC30 (SW900; 10 days): 19.994 µM
- gIC40 (SW900; 10 days): 20 µM
- gIC60 (SW900; 10 days): 20 µM
- gIC70 (SW900; 10 days): 20 µM
- gIC100 (SW900; 10 days): 20 µM
- gIC30 (SW900): 19.994 µM
- gIC40 (SW900): 20 µM
- gIC60 (SW900): 20 µM
- gIC70 (SW900): 20 µM
- gIC100 (SW900): 20 µM
- IC50 (UMUC5; 240 h, 10 days): 4280 nM
- gIC30 (UMUC5; 10 days): 420 nM
- gIC40 (UMUC5; 10 days): 1291 nM
- gIC60 (UMUC5; 10 days): 13.142 µM
- gIC70 (UMUC5; 10 days): 20 µM
- gIC100 (UMUC5; 10 days): 20 µM
- gIC30 (UMUC5): 420 nM
- gIC40 (UMUC5): 1291 nM
- gIC60 (UMUC5): 13.142 µM
- gIC70 (UMUC5): 20 µM
- gIC100 (UMUC5): 20 µM
- IC50 (UMUC5): 4280 nM
- gIC30 (NCI-H520; 10 days): 20 µM
- gIC40 (NCI-H520; 10 days): 20 µM
- gIC60 (NCI-H520; 10 days): 20 µM
- gIC70 (NCI-H520; 10 days): 20 µM
- gIC100 (NCI-H520; 10 days): 20 µM
- gIC30 (NCI-H520): 20 µM
- gIC40 (NCI-H520): 20 µM
- gIC60 (NCI-H520): 20 µM
- gIC70 (NCI-H520): 20 µM
- gIC100 (NCI-H520): 20 µM
- IC50 (UMUC11; 240 h, 10 days): 20000 nM
- gIC30 (UMUC11; 10 days): 20 µM
- gIC40 (UMUC11; 10 days): 20 µM
- gIC60 (UMUC11; 10 days): 20 µM
- gIC70 (UMUC11; 10 days): 20 µM
- gIC100 (UMUC11; 10 days): 20 µM
- gIC30 (UMUC11): 20 µM
- gIC40 (UMUC11): 20 µM
- gIC60 (UMUC11): 20 µM
- gIC70 (UMUC11): 20 µM
- gIC100 (UMUC11): 20 µM
- IC50 (UMUC11): 20000 nM
- gIC30 (NCI-H838; 10 days): 102 nM
- gIC40 (NCI-H838; 10 days): 189 nM
- gIC60 (NCI-H838; 10 days): 11.309 µM
- gIC70 (NCI-H838; 10 days): 20 µM
- gIC100 (NCI-H838; 10 days): 20 µM
- gIC30 (NCI-H838): 102 nM
- gIC40 (NCI-H838): 189 nM
- gIC60 (NCI-H838): 11.309 µM
- gIC70 (NCI-H838): 20 µM
- gIC100 (NCI-H838): 20 µM
- gIC30 (RT112/84; 10 days): 345 nM
- gIC40 (RT112/84; 10 days): 1111 nM
- gIC60 (RT112/84; 10 days): 12.951 µM
- gIC70 (RT112/84; 10 days): 20 µM
- gIC100 (RT112/84; 10 days): 20 µM
- IC50 (RT112/84; RT112/84, 240 h, 10 days): 3400 nM
- IC50 (RT112/84; RT112/84): 3400 nM
- gIC30 (RT112/84): 345 nM
- gIC40 (RT112/84): 1111 nM
- gIC60 (RT112/84): 12.951 µM
- gIC70 (RT112/84): 20 µM
- gIC100 (RT112/84): 20 µM
